These results are taken from publication PMC6273209, “Evaluation of the Enantiomer Specific Biokinetics and Radiation Doses of [^18F]Fluspidine—A New Tracer in Clinical Translation for Imaging of σ1 Receptors” (Molecules, 2016).

Bounds are passed on as bounds.

The nature of the data set: Acute toxicity study, single intravenous injection. The note with it: single intravenous administration, Wistar rats, day 2 and day 15; highest tested dose. The format is in vivo. From the text:
Supplementary Materials: Evaluation of the Enantiomer Specific Biokinetics and Radiation Doses of [18F]Fluspidine—A New Tracer in Clinical
Translation for Imaging of σ1 Receptors […]
Supplemental Methods and Results
Animal Toxicity Study of (S)-(−)-Fluspidine
The purpose of this study was to assess the acute toxicity of (S)-(−)-fluspidine when administered by a single intravenous injection to rats followed by an observation period of 2 or 15 day (in accordance with EU cGLP). Briefly, the study was performed with 4 test groups, including 1 control (saline and dimethylsulfoxide) and 3 dose groups (6.2, 62 and 620 µg/kg, (S)- (−)ﬂuspidine), with Wistar rats (60 m, 60 f, 12 weeks) divided into two experiments: day 2 (40 males and 40 females) and day 15 (20 males and 20 females). The animals were weighted and allocated to the test groups based on their actual body weights. The animals were sacrificed at two time periods (day 2 and day 15 after test item administration) and then examined macroscopically and histopathologically. In addition the following parameters were evaluated: mortality, clinical observation (spasms, tremor and hyperactivity), body weights, food consumption, haematology (white blood cells, red blood cells, hemoglobin, hematocrit, mean corpuscular volume, mean corpuscular hemoglobin, platelets, lympohcytes, neutrophils, eosinophils, basophils, monocytes), clinical chemistry (alkaline phosphatase, aspartate aminotransferase, alanine aminotransferase, glucose, cholesterol, triacylglycerols, creatinine, urea, bilirubin, albumin, calcium, phosphorus, sodium, potassium chloride), pathology and histopathology. […]
in either gender were detected. The food consumption corresponded with body weight development. All haematology parameter´s values on day 2 and day 15 were within physiological range for this species. Individual divergences of some values of the haematology parameters were slight and not connected with treatment.
There were no findings in clinical chemistry parameters which could be definitively considered as adverse. The average values of all test groups were within the historical control ranges. Occasional changes had no dose relationship, they were considered to be a result of intraindividual and interindividual variability for this species. […]
histopathological parameters on day 2 and day 15. The no observed effect level (NOEL) of (S)- (−)-fluspidine after single intravenous administration in this study for both day 2 and day 15 was determined to be 620 µg/kg.

Take `FCC[C@@H]1OC2(CCN(Cc3ccccc3)CC2)c2ccccc21` [(S)-(−)-[^18F]fluspidine]: the “no observed effect level (NOEL)” value was no less than 600 µg/kg.
